pEC50, pIC50: −log10 of the molar value. Like-named read-outs stand apart in the source and are kept apart here.
Experiments:
[1] = biological target: T1, hDGKalpha(1-735)-N-His (DGKA) (Homo sapiens, UniProt P23743); assay: In vitro DGK inhibition assay (ADP-Glo, in house), DGK alpha; type: biochemical; conditions: isomer A; 4 nM DGK α, 25 μM ATP, 125 μM DLG in liposomes, 1 hour reaction; read-out: DGKalpha ADP Glo assay IC50
T1 construct: hDGKalpha(1-735)-N-His; His (N)
Description: DGK α and ζ kinase use ATP to phosphorylate the substrate 1,2-dilauroyl-sn-glycerol (DLG, incorporated in the liposomes). ATP is converted to ADP as a result of this enzymatic reaction.
After the kinase reaction, an ATP-depletion reagent is added to terminate the kinase reaction and deplete any remaining ATP, leaving only ADP. Second, a detection reagent is added to simultaneously convert ADP to ATP and allow the newly synthesized ATP to be converted to light using a coupled luciferase/luciferin reaction.
Full length DGKA and Z were expressed in Sf21 insect cells by infecting the cells with the baculovirus stock at MOI of 2. Purification of both enzymes was performed as previously described by Takahashi et al., PeerJ, 2018 (Takahashi, D.; Sakane, F. Expression and purification of human diacylglycerolkinase alpha from baculovirus-infected insect cells for structural studies. PeerJ2018, 6, No. e5449).
A concentrated liposome solution was prepared in assay buffer without DTT and BSA: 2 mM of DLG in 21 mM of total liposome (2 mM DLG/8 mM PS/11 mM PC). The reaction mixtures contain the assay buffer with a final DLG concentration of 125 μM ATP concentrations of 25 μM (for DGKA assay) or 50 μM (for DGKZ assay). The reactions were started by addition of DGK α and ζ kinases at 4 nM and 2 nM final concentrations, respectively. After 1 hour reaction, the amount of ADP formed was detected with the ADP-Glo kinase assay (Promega) according to the manufacturer instructions. Compounds were added in 11I-points dose response, starting at 10 mM, 1:3 dilutions, with a final DMSO concentration of […]. The multidrop combi was used as a liquid handler and luminescence was read with 0.5 s by the envision reader (PE).

primary human T-cells = assay: IL2 secretion measurements in CD3-stimulated T-cells; type: cell-based; conditions: isomer A; for pEC50: CD3 antibody-stimulated T-cells, IL2 in supernatant after 24 hours, read-out: Tcell IL2 CD3 EC50; for Emax: read-out: Emax IL2 (% activation)
Description: As readouts for T-cell activation, IL2 secretion after 24 hours and proliferation after 5 days was measured. Increases in IL2 secretion and proliferation upon compound treatment were assessed as the % of the maximum of reference compound A1. WO 2016/139181 discloses reference compound A1 as example 70. As a counter screen and to make sure that no unwanted TCR-independent activation was triggered, PBS conditions were run for all compounds.
Expanded primary human T-cells were thawed and cultured in RPMI 1640 (Gibco, #61870-010)+5% human serum (HS, Sigma, #H3667)+1 mM Sodium Pyruvate (Gibco, #11360-039)+50 μM 2-mercaptoethanol (Gibco, #31350-010) and lx Pen-Strep (Life Technologies, #15140122) medium at density of 2 Mio/ml for 3 hours in 5% CO2, 37° C. and 95% humidity. For coating of plates, […] or PBS++ with CD3 antibody (concentration depending on donor and determined by CD3 titrations) was added 100 μl/well to Poly-D Lysine coated 96-well plates. Plates were sealed and incubated at room temperature for 3 hours on a table-top rocking platform. After incubation, plates were washed once with PBS−− and filled with 40 μl/well culture medium only. Compounds were then added (see next section) to medium only plates. After 3 hours of culturing the T-cells, cells were filtered through a cell strainer (Miltenyi Biotech, #130-041-407), counted again and concentration was adjusted to 1.25 Mio/ml.
Cells were then seeded 80 μl/well to the 40 μl/well including dispensed compounds according to plate layout. By adding cells, compounds were further diluted 1:3, and resulting in 100k cells/120 μl/well. After 24 hours 40 μl of supernatant was collected carefully from the top while not disturbing the cells and transferred into a round bottom 96 well plate. Collected and frozen supernatant was used for detection of IL2 using the IL-2 Human ProQuantum Immunoassay Kit (Invitrogen) or using the Human IL-2 ELISA Kit (Thermo Fisher).
Compounds were added in a 5 or 6 pt dose response with the Tecan D300e Digital Dispenser, all conditions 3 times more concentrated than the end-concentration, since cells are added afterwards (80 μl cells to 40 μl prepared medium with treatment). The DR was starting at 20 μM or 10 μM final top concentration and a dilution factor of 3.333. The positive control was the reference compound A1 that was added in a dose response as well, additionally to 3 wells of only 20 μM representing the positive stimulator control. All wells were normalized with DMSO to a final concentration of 0.6% (0.2% end-concentration).
The immunoassay is done following the manufacturer's manual (Invitrogen, #A35603).
Additional information: For the immunoassay, MicroAmp™ EnduraPlate™ Optical 384-Well plates are used. Frozen supernatant is thawed and centrifuged for 5 minutes at 1000×g, both steps at 4° C. After centrifugation, required sample amount is taken from the top, and in a separate LightCycler V-bottom plate (working plate) diluted with assay dilution buffer, dilution factor depending on the PBS or CD3 condition but at least 1:3. IL-2 standard and blanks are prepared in the same V-bottom plate, standard with a range of […] (extended version). After preparation, […] of sample dilutions or standard/blanks are transferred to the optical 384-well plate (assay plate) and the 10 μl reaction protocol is being followed. For measurement, the QuantStudio 12K Flex system is used. Raw data is extracted and IL-2 concentrations are calculated with the Thermo Fisher online app (apps.thermofisher.com/apps/proquantum).
ELISA is done following the manufacturer's manual (Thermo Fisher Scientific, #88-7025-88).
Additional information: For the ELISA Nunc MaxiSorp 96 well plates are used. Frozen supernatant is thawed and centrifuged for 5 minutes at 1000×g, both steps at 4° C. After that, required sample amount is taken from the top, and in a separate V-bottom plate diluted with ELISA diluent, dilution factor depending on the PBS or CD3 condition. […]

[2] = Homo sapiens, T-cell, CD3 condition, 24 hours, 20 μM reference compound A1 = 100%, DMSO neutral control

T1 sequence (P23743 whole entry): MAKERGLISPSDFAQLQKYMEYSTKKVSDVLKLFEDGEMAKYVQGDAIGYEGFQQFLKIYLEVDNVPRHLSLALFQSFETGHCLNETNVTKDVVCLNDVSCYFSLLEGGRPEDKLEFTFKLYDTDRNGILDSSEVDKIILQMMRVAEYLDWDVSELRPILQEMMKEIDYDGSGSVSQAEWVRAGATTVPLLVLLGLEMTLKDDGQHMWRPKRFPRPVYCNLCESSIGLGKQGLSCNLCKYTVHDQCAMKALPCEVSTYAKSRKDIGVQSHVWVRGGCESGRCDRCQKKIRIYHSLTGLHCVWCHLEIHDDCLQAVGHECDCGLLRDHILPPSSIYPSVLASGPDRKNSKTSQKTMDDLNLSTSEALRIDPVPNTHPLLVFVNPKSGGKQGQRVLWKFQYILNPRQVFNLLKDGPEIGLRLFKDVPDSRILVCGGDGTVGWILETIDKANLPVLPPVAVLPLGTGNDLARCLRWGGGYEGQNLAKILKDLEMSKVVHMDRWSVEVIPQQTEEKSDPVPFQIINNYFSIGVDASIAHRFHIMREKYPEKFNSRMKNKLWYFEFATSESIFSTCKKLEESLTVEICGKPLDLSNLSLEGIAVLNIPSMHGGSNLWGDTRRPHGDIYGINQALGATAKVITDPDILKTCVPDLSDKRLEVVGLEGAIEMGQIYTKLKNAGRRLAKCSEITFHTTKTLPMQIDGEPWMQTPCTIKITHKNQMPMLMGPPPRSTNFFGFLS

Row | Compound | pIC50 [1] | pEC50 (primary human T-cells) | Emax IL2 (% activation) (primary human T-cells; CD3 condition, 24 hours, 20 μM reference compound A1 = 100%, DMSO neutral control) | pEC50 (primary human T-cells; Homo sapiens, T-cell) | Emax (primary human T-cells; [2])
1 | 2-methyl-2-[5-[(3S)-3-amino-5,5,7-trifluoro-2-oxo-1-[[4-(trifluoromethoxy)phenyl]methyl]-3,4-dihydro-1-benzazepin-8-yl]-1,3,4-oxadiazol-2-yl]propanenitrile and 2-methyl-2-[5-[(3R)-3-amino-5,5,7-trifluoro-2-oxo-1-[[4-(trifluoromethoxy)phenyl]methyl]-3,4-dihydro-1-benzazepin-8-yl]-1,3,4-oxadiazol-2-yl]propanenitrile [Example 2] | 5.85 | 6.08 | 256 % activation | – | –
2 | CC(C)(c1nnc(-c2cc3c(cc2F)C(F)(F)CC(N)C(=O)N3Cc2ccc(Oc3ccccc3)cc2)o1)S(C)(=O)=O (racemic) [Example 5, (3S)-3-amino-5,5,7-trifluoro-8-[5-(1-methyl-1-methylsulfonyl-ethyl)-1,3,4-oxadiazol-2-yl]-1-[(4-phenoxyphenyl)methyl]-3,4-dihydro-1-benzazepin-2-one and (3R)-3-amino-5,5,7-trifluoro-8-[5-(1-methyl-1-methylsulfonyl-ethyl)-1,3,4-oxadiazol-2-yl]-1-[(4-phenoxyphenyl)methyl]-3,4-dihydro-1-benzazepin-2-one] | 4.77 | – | – | 5.63 | 165%
3 | CC(C)(C#N)c1nnc(-c2cc3c(cc2F)C(F)(F)CC(N)C(=O)N3Cc2ccc(-n3cc(C(F)(F)F)cn3)cc2)o1 (racemic) [Example 33, 2-[5-[(3S)-3-amino-5,5,7-trifluoro-2-oxo-1-[[4-[4-(trifluoromethyl)pyrazol-1-yl]phenyl]methyl]-3,4-dihydro-1-benzazepin-8-yl]-1,3,4-oxadiazol-2-yl]-2-methyl-propanenitrile and 2-[5-[(3R)-3-amino-5,5,7-trifluoro-2-oxo-1-[[4-[4-(trifluoromethyl)pyrazol-1-yl]phenyl]methyl]-3,4-dihydro-1-benzazepin-8-yl]-1,3,4-oxadiazol-2-yl]-2-methyl-propanenitrile] | 5.63 | – | – | 6.62 | 62%
4 | COC(F)(c1nnc(-c2cc3c(cc2F)C(F)(F)C[C@H](N)C(=O)N3Cc2ccc(OC(F)(F)F)cc2)o1)C(F)(F)F (single isomer, unassigned) [Example 4] | 5.36 | – | – | 6.09 | 91%
5 | CC(C)(C)c1nnc(-c2cc3c(cc2F)C(F)(F)C[C@@H](N)C(=O)N3Cc2ccc(OC3CCCC3)cc2)o1 (single isomer, unassigned) [Example 7] | 5.02 | – | – | 6.55 | 94%
6 | CC(C)(c1nnc(-c2cc3c(cc2F)C(F)(F)C[C@@H](N)C(=O)N3Cc2ccc(-c3ccc(C(F)(F)F)cn3)cc2)o1)S(C)(=O)=O (single isomer, unassigned) [Example 8] | 5.26 | – | – | 6.43 | 69%
7 | COc1ccc(-c2ccc(CN3C(=O)[C@H](N)CC(F)(F)c4cc(F)c(-c5nnc(C(C)(C)C#N)o5)cc43)cc2)cc1 (single isomer, unassigned) [Example 9] | 5.00 | – | – | 6.43 | 133%
8 | COc1ccc(-c2ccc(CN3C(=O)[C@H](N)CC(F)(F)c4cc(F)c(-c5nnc(C(C)(C)S(C)(=O)=O)o5)cc43)cc2)cc1 (single isomer, unassigned) [Example 10] | 4.79 | – | – | 6.42 | 57%
9 | CC(C)(C#N)c1nnc(-c2cc3c(cc2F)C(F)(F)C[C@@H](N)C(=O)N3Cc2ccc(-c3ccc(C(F)(F)F)cn3)cc2)o1 (single isomer, unassigned) [Example 12] | 4.61 | – | – | 6.44 | 67%
10 | CCN1CC(c2nnc(-c3cc4c(cc3F)C(F)(F)C[C@@H](N)C(=O)N4Cc3ccc(OC(F)(F)F)cc3)o2)CC(F)(F)C1 (single isomer, unassigned) [Example 13] | 5.03 | – | – | < 5.00 | 58%
11 | N[C@@H]1CC(F)(F)c2cc(F)c(-c3nnc(N4CCCC4)o3)cc2N(Cc2ccc(-c3noc(C(F)(F)F)n3)cc2)C1=O (single isomer, unassigned) [Example 14] | < 4.20 | – | – | 6.01 | 239%
12 | N[C@@H]1CC(F)(F)c2cc(F)c(-c3nnc(N4CCC(F)(F)CC4)o3)cc2N(Cc2ccc(-c3noc(C(F)(F)F)n3)cc2)C1=O (single isomer, unassigned) [Example 15] | 4.40 | – | – | 5.89 | 152%
13 | CC(C)(c1nnc(-c2cc3c(cc2F)C(F)(F)C[C@@H](N)C(=O)N3Cc2ccc(-c3noc(C(F)(F)F)n3)cc2)o1)S(C)(=O)=O (single isomer, unassigned) [Example 16] | 4.88 | – | – | 5.84 | 183%
14 | N[C@@H]1CC(F)(F)c2cc(F)c(-c3nnc(N4CCOC5(CC5)C4)o3)cc2N(Cc2ccc(-c3noc(C(F)(F)F)n3)cc2)C1=O (single isomer, unassigned) [Example 17] | < 4.20 | – | – | 5.42 | 107%
15 | CC(C)(C#N)c1nnc(-c2cc3c(cc2F)C(F)(F)C[C@@H](N)C(=O)N3Cc2ccc(-c3ncc(C(F)(F)F)cc3F)cc2)o1 (single isomer, unassigned) [Example 19] | 4.38 | – | – | < 5.56 | 63%
16 | CC(C)(C#N)c1nnc(-c2cc3c(cc2F)C(F)(F)C[C@@H](N)C(=O)N3Cc2ccc(-n3nnc(C(F)(F)F)n3)cc2)o1 (single isomer, unassigned) [Example 20] | 5.14 | – | – | 5.99 | 161%
17 | N[C@@H]1CC(F)(F)c2cc(F)c(-c3nnc(N4CCCC4)o3)cc2N(Cc2ccc(-n3cnc(C(F)(F)F)n3)cc2)C1=O (single isomer, unassigned) [Example 21] | 4.96 | – | – | 5.11 | 63%

— patent US20250236614A1, “BICYCLIC TETRAHYDROAZEPINE DERIVATIVES” (Hoffmann-La Roche Inc., priority 2022, published 2025)
